From ChEMBL document CHEMBL1142687, “New approaches toward anti-HIV chemotherapy” (J Med Chem, 2005)
Converted amounts (≈) assume the structure as drawn. Each block holds one molecule with its values, some of them ahead of it.

How the values were obtained:
[1] = tested on: Human immunodeficiency virus 1; test: Cytotoxic concentration of the compound to inhibit HIV 1 replication; assay type: functional
[2] = tested on: Human immunodeficiency virus 1; test: Effective concentration of the compound to inhibit human immunodeficiency virus type 1 replication; assay type: functional, organism-based
[3] = tested on: Cell line; test: Reduction of viral load after oral administration at 100 mg for 8 weeks; expressed as log10 reduction; assay type: functional, Homo sapiens
[4] = tested on: Cell line; test: Mean decrease in viral load in humans after administration of 100 mg twice a day; expressed as log10 reduction; assay type: functional, Homo sapiens
[5] = target: C-C chemokine receptor type 5 (Homo sapiens) (UniProt P51681)
Description: Inhibitory concentration against human immunodeficiency virus isolates utilizing C-C chemokine receptor type 5 for cell entry

[6] = tested on: Cell line; test: Mean decrease in viral load in humans after administration of 25 mg once a day; expressed as log 10 reduction; assay type: functional, Homo sapiens
[7] = Oral bioavailability in fasted rats; assay type: ADME, organism-based; conditions: rat, in vivo, read-out: Bioavailabiility
[8] = Oral bioavailability in monkeys; assay type: ADME, organism-based; conditions: cercopithecidae, in vivo, read-out: Bioavailabiility
[9] = tested on: Human immunodeficiency virus 1; test: (§1) Effective concentration to inhibit the replication of HIV-1 R5 strain; assay type: functional, organism-based
[10] = tested on: Human immunodeficiency virus 1; test: as §1; assay type: functional
[11] = tested on: Human immunodeficiency virus 1; test: Inhibitory concentration to inhibit HIV-1 mediated cell to cell fusion; assay type: functional, organism-based
[12] = Inhibitory concentration to inhibit cell to cell fusion based on C14 linkmid (a short constrained peptide); assay type: functional
[13] = tested on: Human immunodeficiency virus 1; test: Fold reduction in plasma HIV RNAafter intravenous administration of 100 mg twice daily (1.5-2.0); assay type: functional
[14] = tested on: Human immunodeficiency virus 1; test: Effective concentration against human immunodeficiency virus type 1 strains; (0.3-0.5 nM); assay type: functional, organism-based
[15] = tested on: Cell line; test: Reduction of viral load after administration at 25 mg, twice daily for 10 days with antiretrovirals; expressed as log10 reduction; (0.5-1 ); assay type: functional, Homo sapiens
[16] = tested on: Human immunodeficiency virus 1; test: Effective concentration of the compound to inhibit the replication of human immunodeficiency virus type 1; assay type: functional, organism-based
[17] = tested on: Human immunodeficiency virus 1; test: Effective concentration of the compound against human immunodeficiency virus type 1; assay type: functional, organism-based
[18] = tested on: Human immunodeficiency virus 1; test: Selectivity index against human immunodeficiency virus type 1; assay type: functional

C-C chemokine receptor type 5 (Homo sapiens), sequence (P51681 whole entry, looked up): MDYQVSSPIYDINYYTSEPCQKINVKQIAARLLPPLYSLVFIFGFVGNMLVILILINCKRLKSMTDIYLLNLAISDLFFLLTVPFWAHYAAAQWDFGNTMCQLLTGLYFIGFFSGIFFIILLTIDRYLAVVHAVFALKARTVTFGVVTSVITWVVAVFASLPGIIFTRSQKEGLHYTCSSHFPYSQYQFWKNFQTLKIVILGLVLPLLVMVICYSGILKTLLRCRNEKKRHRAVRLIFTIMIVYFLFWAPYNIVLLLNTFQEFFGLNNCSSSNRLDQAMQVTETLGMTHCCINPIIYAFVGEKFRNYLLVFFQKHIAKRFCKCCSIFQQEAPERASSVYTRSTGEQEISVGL

EC50 [2]: 140 nM
Molecule: O=C(/C=C(\O)c1ccc(Cc2ccc(F)cc2)o1)c1nc[nH]n1
CC50 [1]: 110000 nM

Molecule: O=C1Nc2ccc(Cl)cc2[C@@](/C=C/C2CC2)(C(F)(F)F)N1
Reduction [3]: 1.28

IC90 [5]: < 10 nM
Molecule: Cc1nnc(C(C)C)n1[C@H]1CC2CC[C@@H](C1)N2CC[C@H](NC(=O)C1CCC(F)(F)CC1)c1ccccc1 (single isomer, unassigned) [MARAVIROC]
Activity [4]: 1.42 | Activity [6]: 0.42

bioavailability [7]: 9.5% | bioavailability [8]: 28.5% | EC50 [9]: 1.1 nM | EC90 [10]: 13 nM
Molecule: CC(=O)N1CCC(C(=O)N(CCCN2CCC(Cc3ccc(C(N)=O)cc3)CC2)c2ccc(C)c(Cl)c2)CC1

IC50 [11]: ~15 µg/mL (≈ 28.3 µM) | IC50 [12]: 35000 nM
Molecule: CC(C)Cc1cc(-c2ccc(-c3ccc(CCC(=O)O)cc3CC(C)C)cc2C(C)C)ccc1OCC(=O)O

Molecule: enfuvirtide
Reduction [13]: 2

EC50 [14]: 0.5 nM
Molecule: COc1ccc(S(=O)(=O)N(CC(C)C)C[C@@H](O)[C@H](Cc2ccccc2)NC(=O)O[C@H]2CO[C@H]3OCC[C@H]32)cc1

Molecule: COC[C@@H](c1ccc(C(F)(F)F)cc1)N1CCN(C2(C)CCN(C(=O)c3c(C)ncnc3C)CC2)C[C@@H]1C [VICRIVIROC]
Reduction [15]: 1

EC50 [16]: 8900 nM
Molecule: O=[N+]([O-])c1ccc(C2c3c(O)nc(S)nc3Oc3nc(S)nc(O)c32)cc1

EC50 [17]: 0.05 µg/mL (≈ 0.179 µM)
Molecule: Cc1ccc(C)c(CSc2c(Cl)ccc[n+]2[O-])c1
SI [18]: ~760
